In data set [1] the test system is Nrf2 transcription factor (Nrf2-ARE). In words: Nrf2-ARE induction, luciferase activity in AREc32 (MCF7 cells stably transfected with ARE-LUC). It is filed as cell-based. As to conditions: Homo sapiens, 24 h, basal = 1, read-out: Relative Luciferase activity (response versus basal). How it is done: For the study of Nrf2 transcription factor, the cellular line AREC32 was used, which is characterized for being stably transfected with the reporter gene of Luciferase linked to the ARE sequence. In the presence electrophilic compounds or oxidative stress, Nrf2 factor binds to ARE sequences, activating luciferase expression and producing a proportional quantity of luciferase. The AREc32 cells were cultured in DMEM media with glutamax, supplemented with 10% fetal bovine serum (FBS), 1% penicillin-streptomycin and 1.6% geneticine (G418) (obtained from GIBCO, Madrid, Spain). Cells were cultured in 75 cm flasks with 11 mL of specific media, incubated at 37° C. and 5% of CO2. Cells were passed every 4-6 days (1:4), whenever the confluence reached 80%. For the experiments, cells were cultured in transparent surface 96 well plates at a density of […] with 100 μL/well. After 24 h in culture, cells were treated with the compounds at different concentrations (1, 10, 30 and 60 μM) during 24 h at 37° C. and 5% CO2. In every experiment it was also included a basal variable, a variable with 10 μM tert-butyl hydroquinone (TBHQ) (positive control) and the variables of the study in a final volume of 100 μL. After an incubation of 24 h with the compounds, luciferase activity was measured by bioluminescence using the commercial kit “Luciferase assay system” (Promega E1500). For that, treatments were removed and cells were washed with 100 μL of PBS 0.1 M. After washing, 20 μL of “lysis buffer” reactive was added to each well. 10 minutes later, luminescence was measured using the multi-well reader FluoStar optima (BMG labtech).
Luminescence was measured in arbitrary units and is directly proportional to luciferase quantity in the wells, which is also directly proportional to Nrf2 transcription factor induction by the specific compound at the established concentration. Measurements were made in duplicate and values were normalized to the basal luminescence value, considered as 1.
The results of Nrf2 induction obtained for the compounds 1 to 16 are shown in Table 1 and are expressed as induction, considering 1 the non-treated cells.

The next data set concerns HepG2 cells. Briefly: Hepatotoxicity in HepG2 cell line, reduction of cell viability (MTT). The class given is cell-based. On the procedure:
In order to assess cellular viability, we measured the metabolic reduction of 3-(4,5-Dimethylthiazol-2-yl)-2,5 diphenyltetrazolium bromide (MTT). MTT is an indirect assay to measure cellular viability. It is a colorimetric method based on the reduction of 3-(4,5-Dimethylthiazol-2-yl)-2,5 diphenyltetrazolium. This process is performed by the mitochondrial enzyme succinate-dehydrogenase present in metabolic active cells. Thus, the water-soluble yellow MTT (tetrazolium salt) is transformed into a insoluble purple compound (formazan). Quantity of living cells is directly proportional to the quantity of formazan (Mosmann, 1983, J Immunol Methods, 65: 55-63). […] Therefore, with this assay we can measure cellular surviving and proliferation and also, we can determine the cytotoxicity of potential neuroprotective compounds. In order to assess cellular viability in SH-SY5Y cell line, we added 30 μl/well of MTT (5 mg/mL) and after 2 h, medium was carefully removed to avoid losing the formazan and was diluted in 300 μL of DMSO. Afterwards, samples were transferred to a 96 well-plate and the absorbance was measured at 570 nm using a absorbance/fluorescence reader FluoStar optima®. Every MTT assay was performed in triplicates. Absorbance values obtained with the toxic alone were subtracted to the absorbance values obtained in basal conditions (without treatment). That result was considered as the 100% of cell death and the values obtained with the compounds in the presence of the toxic stimulus were normalized as percentages of that value. For determining the surviving percentage, those percentages of cell death were subtracted to 100.
In general, compounds capable of inducing the transcription factor Nrf2 may have a hepatotoxic effect, due to the electrophilic character that generally characterizes them. The derivatives objects of this invention were designed to avoid this toxicity and to improve its safety profile. The liver plays an essential role in the metabolism of endogenous and exogenous compounds. Hepatocytes capture these compounds and after metabolizing them, they are eliminated by different mechanisms. Metabolized compounds usually have less pharmacological activity and less toxicity than the corresponding active principles. However, in certain cases, the active principles or their metabolites may be toxic to the hepatocytes. Hepatic toxicity is one of the leading causes of drug withdrawal from preclinical studies. […] In addition, these cells have been defined by the European Medicines Agency (EMA) as a model of hepatoxicity by measuring the induction of apoptosis and/or cell survival. Therefore, the safety profile of the compounds object of the present invention was evaluated in the HepG2 hepatic cancer cell line. HepG2 cells were cultured in T75 flask using EMEM as culture medium supplemented with non-essential amino acids, 10% fetal bovine serum, 50 units/mL penicillin and 50 μg/mL streptomycin (reagents from GIBCO, Madrid, Spain). Cultures were maintained in an incubator with an O2/CO2 gas mixture (95/5%) at 37° C. with a humid atmosphere and two passes per week were made when they reached 90% of confluence. All experiments were performed on cells that were between passages 5 and 15. For the experiments, the cells were plated in 96-well plates at a density of 4×10 ^4 cells/well in 200 μl of culture medium. After 24 h in culture, the medium was removed and replaced with 100 μL of the corresponding solution of the compounds of the invention in culture medium at the selected concentrations (1, 10, 30 and 100 μM). The compounds were studied in triplicate, including in each experiment 3 wells without treatment, which was considered as 100% of viability (baseline conditions). After 24 h of incubation with the treatments, cell viability was assessed by the MTT reduction method. […]

[2] abbreviates: 24 h incubation, MTT, concentration reducing viability to 50% of basal.

A value given as a limit tells only on which side of the number the result lay.

With `CC(=O)NCCc1c[nH]c2ccc(OC(=O)/C=C/c3ccc(Cl)cc3)cc12` [Compound 11, 3-(2-acetamidoethyl)-1H-indol-5-yl (E)-3-(4-chlorophenyl)acrylate], in data set [1], the fold induction at 10 µM was found to be 1.18 ± 0.1, the fold induction at 30 µM was found to be 1.59 ± 0.2 and the fold induction at 60 µM came out at 3.55 ± 0.9. Besides, the “HepG2 LD50” value in the data set on HepG2 cells (setting [2]) is >100 µM.
For `C/C=C/C(=O)Oc1ccc2[nH]cc(CCNC(C)=O)c2c1` [Compound 1, 3-(2-acetamidoethyl)-1H-indol-5-yl (E)-2-butenoate], in data set [1], the fold induction at 10 µM turned out to be 2.34 ± 0.2, the fold induction at 30 µM amounted to 12.1 ± 1.3 and the fold induction at 60 µM turned out to be 30.7 ± 1.7. Further, in the data set with HepG2 cells (setting [2]), the “HepG2 LD50” value was >100 µM.
For `COc1cccc(/C=C/C(=O)Oc2ccc3[nH]cc(CCNC(C)=O)c3c2)c1` [Compound 5, 3-(2-acetamidoethyl)-1H-indol-5-yl (E)-3-(3-methoxyphenyl)acrylate] the same measures were 1.39 ± 0.1, 1.63 ± 0.2, 2.09 ± 0.2 and >100 µM.
For `COc1ccccc1/C=C/C(=O)Oc1ccc2[nH]cc(CCNC(C)=O)c2c1` [Compound 4, 3-(2-acetamidoethyl)-1H-indol-5-yl (E)-3-(2-methoxyphenyl)acrylate] the same measures were 1.67 ± 0.1, 2.01 ± 0.1, 2.53 ± 0.1 and >100 µM.
For `CC(=O)NCCc1c[nH]c2ccc(OC(=O)/C=C/c3ccc(Cl)c(Cl)c3)cc12` [Compound 12, 3-(2-acetamidoethyl)-1H-indol-5-yl (E)-3-(3,4-dichlorophenyl)acrylate] the same measures were 1.16 ± 0.1, 1.43 ± 0.1, 2.12 ± 0.2 and >100 µM.
With `CC(=O)NCCc1c[nH]c2ccc(OC(=O)/C=C/c3ccc(C(F)(F)F)cc3)cc12` [Compound 15, 3-(2-acetamidoethyl)-1H-indol-5-yl (E)-3-(4-(trifluoromethyl)phenyl)acrylate], in data set [1], the fold induction at 10 µM came to 2.34 ± 0.2, the fold induction at 30 µM came to 4.99 ± 0.5 and the fold induction at 60 µM was 28.9 ± 2.9. In addition, in the data set with HepG2 cells (setting [2]), the “HepG2 LD50” value is >100 µM.
For `CC(=O)NCCc1c[nH]c2ccc(OC(=O)/C=C/c3ccccc3C(F)(F)F)cc12` [Compound 13, 3-(2-acetamidoethyl)-1H-indol-5-yl (E)-3-(2-(trifluoromethyl)phenyl)acrylate] the same measures were 1.38 ± 0.1, 1.79 ± 0.1, 2.55 ± 0.2 and >100 µM.
With `COc1ccc(/C=C/C(=O)Oc2ccc3[nH]cc(CCNC(C)=O)c3c2)cc1` [Compound 6, 3-(2-acetamidoethyl)-1H-indol-5-yl (E)-3-(4-methoxyphenyl)acrylate], in data set [1], the fold induction at 10 µM was 2.02 ± 0.2, the fold induction at 30 µM turned out to be 3.4 ± 0.3 and the fold induction at 60 µM turned out to be 4.62 ± 0.4. The “HepG2 LD50” value with HepG2 cells (setting [2]) is >100 µM.
Take `CC(=O)NCCc1c[nH]c2ccc(OC(=O)/C=C/c3ccc(C)cc3)cc12` [Compound 3, 3-(2-acetamidoethyl)-1H-indol-5-yl (E)-3-(4-methylphenyl)acrylate]: in data set [1], the fold induction at 10 µM turned out to be 1.26 ± 0.1, the fold induction at 30 µM turned out to be 2.03 ± 0.1 and the fold induction at 60 µM came to 3.26 ± 0.3. In addition, in the data set with HepG2 cells (setting [2]), the “HepG2 LD50” value was >100 µM.
For `CC(=O)NCCc1c[nH]c2ccc(OC(=O)/C=C/c3ccc(O)cc3)cc12` [Compound 7, 3-(2-acetamidoethyl)-1H-indol-5-yl (E)-3-(4-hydroxyphenyl)acrylate] the same measures were 0.95 ± 0.1, 1.09 ± 0.1, 1.57 ± 0.1 and >100 µM.
For the molecule `COc1ccc2[nH]cc(CCNC(C)=O)c2c1` [Melatonin, reference compound], the “HepG2 LD50” value in the data set with HepG2 cells (human, 24 h) is >100 µM.
On to `CC(=O)NCCc1c[nH]c2ccc(OC(=O)/C=C/c3ccc([N+](=O)[O-])cc3)cc12` [Compound 16, 3-(2-acetamidoethyl)-1H-indol-5-yl (E)-3-(4-nitrophenyl)acrylate], for which, in data set [1], the fold induction at 10 µM was 1.69 ± 0.1, the fold induction at 30 µM came out at 2.41 ± 0.1 and the fold induction at 60 µM was 3.19 ± 0.1. Besides, the “HepG2 LD50” value with HepG2 cells (setting [2]) was >100 µM.
For `CC(=O)NCCc1c[nH]c2ccc(OC(=O)/C=C/c3ccccc3)cc12` [Compound 2, 3-(2-acetamidoethyl)-1H-indol-5-yl cinnamate] the same measures were 1.63 ± 0.2, 1.78 ± 0.1, 2.54 ± 0.3 and >100 µM.
For the molecule `CC(=O)NCCc1c[nH]c2ccc(OC(=O)/C=C/c3cccc(C(F)(F)F)c3)cc12` [Compound 14, 3-(2-acetamidoethyl)-1H-indol-5-yl (E)-3-(3-(trifluoromethyl)phenyl)acrylate], in data set [1], the fold induction at 10 µM turned out to be 1.34 ± 0.2, the fold induction at 30 µM is 1.64 ± 0.2 and the fold induction at 60 µM stood at 2.13 ± 0.2. Further, the “HepG2 LD50” value in the data set with HepG2 cells (setting [2]) was >100 µM.
For `CC(=O)NCCc1c[nH]c2ccc(OC(=O)/C=C/c3ccc(Br)cc3)cc12` [Compound 10, 3-(2-acetamidoethyl)-1H-indol-5-yl (E)-3-(4-bromophenyl)acrylate] the same measures were 1.53 ± 0.2, 3.12 ± 0.5, 13.3 ± 2.1 and >100 µM.
For `CC(=O)NCCc1c[nH]c2ccc(OC(=O)/C=C/c3ccc(F)cc3)cc12` [Compound 9, 3-(2-acetamidoethyl)-1H-indol-5-yl (E)-3-(4-fluorophenyl)acrylate] the same measures were 1.92 ± 0.2, 2.27 ± 0.2, 4.21 ± 0.6 and >100 µM.
`COc1cc(/C=C/C(=O)Oc2ccc3[nH]cc(CCNC(C)=O)c3c2)ccc1O` [Compound 8, 3-(2-acetamidoethyl)-1H-indol-5-yl (E)-3-(4-hydroxy-3-methoxyphenyl)acrylate]: in data set [1], the fold induction at 10 µM came to 1.11 ± 0.1, the fold induction at 30 µM turned out to be 1.83 ± 0.1 and the fold induction at 60 µM is 2.36 ± 0.1. Moreover, in the data set with HepG2 cells (setting [2]), the “HepG2 LD50” value was >100 µM.

The record behind these values is patent US20180105492A1, “COMPOUNDS DERIVED FROM 3-ALKYLAMINE-1H-INDOLYL ACRYLATE AND THEIR USE IN THE TREATMENT OF NEURODEGENERATIVE DISEASES” (FUNDACION PARA LA INVESTIGACION BIOMEDICA DEL HOSPITAL …, priority 2014, published 2018).
